# Reference: patent US10966426B2, “Herbicidal compositions comprising phenylpyrimidines” (BASF SE, priority 2016, dated 2021)
# Assays:
# Format in all cases: in vivo
# Avena fatua = experiment: greenhouse pre-emergence treatment, AVEFA; conditions: Avena fatua, 480 h, 20 DAT, AVEFA, metribuzin WG 70% solo 31.25 gai/ha
# In short: (§1)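 Seeds were sown per species in pots of loamy sand with about 3.0% humus, sprayed with the aqueous spray liquor directly after sowing, watered and hooded until rooted, then kept at 10-25° C. or 20-35° C. for 2 to 4 weeks. Damage was scored 0 (none) to 100 (no emergence/complete destruction).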
# Digitaria sanguinalis [1] = experiment: greenhouse pre-emergence treatment, DIGSA; conditions: Digitaria sanguinalis, 480 h, solo, WG 70%, DIGSA, 31.25 gai/ha, 20 DAT
# In short: as §1
# Polygonum convolvulus = experiment: greenhouse pre-emergence treatment, POLCO; conditions: Fallopia convolvulus, 480 h, 20 DAT, POLCO
# In short: as §1
# Digitaria sanguinalis [2] = experiment: greenhouse post-emergence treatment, DIGSA; conditions: Digitaria sanguinalis, 480 h, 20 DAT, DIGSA
# In short: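 Scoring ran on a 0-100 scale, 100 meaning no emergence or destroyed above-ground parts, over a 2-4 week period; Colby formula E=X+Y−(X·Y/100) gave expected mixture effects. Species grew separately in loamy sand (about 3.0% humus) at 10-25° C or 20-35° C, with water as solvent.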
# Stellaria media = experiment: greenhouse post-emergence treatment, STEME; conditions: Stellaria media, 480 h, 20 DAT, STEME, metribuzin WG 70% solo 35 gai/ha
# In short: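 Plants were grown in loamy sand with about 3.0% humus to 3–15 cm height, then sprayed with actives formulated as 10% by weight emulsion concentrates in water. Held at 10-25° C. or 20-35° C. by species for 2 to 4 weeks; damage scored 0 (none) to 100 (complete destruction).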
# Galium aparine [3] = experiment: greenhouse post-emergence treatment, GALAP; conditions: Galium aparine, 480 h, 20 DAT, GALAP
# In short: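 Seeds sown per species in pots of loamy sand; seedlings either grown in place or transplanted days before treatment. Post-emergence spray of water-based liquor at 3–15 cm height. Injury rated 0–100 over 2 to 4 weeks.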
# Papaver rhoeas = experiment: greenhouse pre-emergence treatment, PAPRH; conditions: 20 DAT
# In short: as §1
# Helianthus annuus = experiment: greenhouse post-emergence treatment, HELAN; conditions: Helianthus annuus, 480 h, 20 DAT, HELAN, metribuzin WG 70% solo 35 gai/ha
# Procedure: The culture containers used were plastic pots containing loamy sand with approximately 3.0% of humus as substrate. The seeds of the test plants were sown separately for each species.
# For the post-emergence treatment, the test plants were grown to a plant height of from 3 to 15 cm, depending on the plant habit, and only then treated with the active compounds which had been suspended or emulsified in water. To this end, the test plants were either sown directly, and grown in the same containers, or they were first grown separately as seedlings and transplanted into the test containers a few days prior to treatment.
# Depending on the species, the plants were kept at 10-25° C. and 20-35° C., respectively.
# The test period extended over 2 to 4 weeks. During this time, the plants were tended and their response to the individual treatments was evaluated.
# Evaluation was carried out using a scale from 0 to 100. 100 means no emergence of the plants, or complete destruction of at least the above-ground parts, and 0 means no damage or normal course of growth. A good herbicidal activity is given at values of at least 70, and very good herbicidal activity is given at values of at least 85.
# The respective stated components A and B, and if appropriate, C were formulated as a 10% by weight strength emulsion concentrate and, with addition of the amount of solvent system, introduced into the spray liquor used for applying the active compound. In the examples, the solvent used was water.
# In the examples below, using the method of S. R. Colby (1967) “Calculating synergistic and antagonistic responses of herbicide combinations”, Weeds 15, p. 22ff., the value E, which is expected if the activity of the individual active compounds is only additive, was calculated. E=X+Y−(X·Y/100) where X=effect in percent using herbicide A at an application rate a; • Y=effect in percent using herbicide B at application rate b; • E=expected effect (in %) of herbicide A+herbicide B at application rates a+b.
# Apera spica-venti = experiment: greenhouse pre-emergence treatment, APESV; conditions: solo, WG 70%, 20 DAT
# In short: as §1
# Galium aparine [4] = experiment: greenhouse pre-emergence treatment, GALAP; conditions: Galium aparine, 480 h, 20 DAT, GALAP
# In short: as §1
# Setaria viridis = experiment: greenhouse pre-emergence treatment, SETVI; conditions: solo, WG 70%, SETVI, 31.25 gai/ha, 20 DAT
# In short: as §1
# [5] = metribuzin WG 70% solo 17.5 gai/ha
# [6] = metribuzin WG 70% solo 35 gai/ha
compound,measurement,setting,value
CSc1nnc(C(C)(C)C)c(=O)n1N [metribuzin],inhibition at 31.25 g/ha,Avena fatua,30%
same,pest or weed control at 31.25 g/ha,Digitaria sanguinalis [1],40%
same,inhibition at 62.5 g/ha,"Polygonum convolvulus; metribuzin WG 70% solo 62.5 gai/ha, read-out: % activity",0%
same,inhibition at 125 g/ha,"Polygonum convolvulus; metribuzin WG 70% solo 125 gai/ha, read-out: % activity",0%
same,inhibition at 250 g/ha,"Polygonum convolvulus; metribuzin WG 70% solo 250 gai/ha, read-out: % activity",0%
same,pest or weed control at 62.5 g/ha,"Polygonum convolvulus; solo, WG 70%, 62.5 gai/ha",0%
same,pest or weed control at 125 g/ha,"Polygonum convolvulus; solo, WG 70%, 125 gai/ha",0%
same,inhibition at 17.5 g/ha,Digitaria sanguinalis [2]; [5],0%
same,inhibition at 35 g/ha,Digitaria sanguinalis [2]; [6],35%
same,pest or weed control at 17.5 g/ha,"Digitaria sanguinalis [2]; solo, WG 70%, 17.5 gai/ha",0%
same,pest or weed control at 35 g/ha,"Digitaria sanguinalis [2]; solo, WG 70%, 35 gai/ha",35%
same,pest or weed control at 140 g/ha,"Digitaria sanguinalis [2]; solo, WG 70%, 140 gai/ha",85%
same,inhibition at 35 g/ha,Stellaria media,80%
same,inhibition at 17.5 g/ha,Galium aparine [3]; [5],0%
same,inhibition at 35 g/ha,Galium aparine [3]; [6],0%
same,inhibition at 70 g/ha,Galium aparine [3]; metribuzin WG 70% solo 70 gai/ha,0%
same,inhibition at 140 g/ha,Galium aparine [3]; metribuzin WG 70% solo 140 gai/ha,0%
same,pest or weed control at 35 g/ha,"Galium aparine [3]; solo, WG 70%, 35 gai/ha",0%
same,pest or weed control at 70 g/ha,"Galium aparine [3]; solo, WG 70%, 70 gai/ha",0%
same,pest or weed control at 140 g/ha,"Galium aparine [3]; solo, WG 70%, 140 gai/ha",0%
same,inhibition at 31.25 g/ha,"Papaver rhoeas; Papaver rhoeas, 480 h, metribuzin WG 70% solo 31.25 gai/ha",80%
same,inhibition at 125 g/ha,"Papaver rhoeas; Papaver rhoeas, 480 h, metribuzin WG 70% solo 125 gai/ha",98%
same,% activity,"Papaver rhoeas; solo, WG 70%, 31.25 gai/ha",80%
same,inhibition at 35 g/ha,Helianthus annuus,70%
same,% activity,Apera spica-venti; 31.25 gai/ha,30%
same,% activity,Apera spica-venti; 62.5 gai/ha,50%
same,"% herbicidal activity (weed control, 0-100 scale) at 250 g/ha",Galium aparine [4]; metribuzin WG 70% solo 250 gai/ha,0%
same,pest or weed control at 250 g/ha,"Galium aparine [4]; solo, WG 70%, 250 gai/ha",0%
same,% activity,Setaria viridis,0%
